{"source": "patent US11169156B2", "about": "“Long wavelength voltage sensitive dyes” (The Regents of the University of California, priority 2015, dated 2021)", "key": {"[1]": {"conditions": "in CH3OH; cited from earlier work"}, "[2]": {"test": "Spectroscopic studies (absorbance, emission, quantum yield) in vitro", "format": "physicochemical", "conditions": "for quantum yield (Φfl): referenced to cresyl violet; for emission maximum: aqueous buffer"}, "[3]": {"test": "In vitro cross excitation in aqueous buffer (emission scans with differing excitation wavelengths)", "format": "physicochemical", "conditions": "emission 680 nm", "experimental": "FIG. 12A-C provides for in vitro cross excitation of BeRST 1 and BR. Emission scans of (A) BeRST 1 and (B) BR in aqueous buffer (50 mM TBS, pH 7.5, 0.1% SDS) with differing excitation wavelengths. (C) Relative fluorescence emission intensity at 680 nm vs. excitation wavelength for BeRST 1 (black bars) and BR (grey bars).\nStock solutions of BR and BeRST 1 were prepared in DMSO (1.0-10 mM) and diluted with TBS (50 mM Tris-HCl, pH 7.5, 0.15 M NaCl) solution containing 0.10% (w/w) SDS (1:100 to 1:1000 dilution). UV-Vis absorbance and fluorescence spectra were recorded using a Shimadzu 2501 Spectrophotometer (Shimadzu) and a Quantamaster Master 4 L-format scanning spectrofluorometer (Photon Technologies International). The fluorometer is equipped with an LPS-220B 75-W xenon lamp and power supply, A-1010B lamp housing with integrated igniter, switchable 814 photon-counting/analog photomultiplier detection unit, and MD5020 motor driver. Samples were measured in 1-cm path length quartz cuvettes (Starna Cells). Relative quantum yields were measured in TBS solution containing 0.10% (w/w) SDS or in CH3OH and referenced to cresyl violet in CH3OH, which has a quantum yield of 0.54."}, "rat hippocampal neurons [4]": {"system": "rat hippocampal neurons", "test": "Action potential imaging in patch-clamped (current clamp) hippocampal neurons", "format": "cell-based", "conditions": "1.8 kHz optical sampling, n=7 cells", "experimental": "Hippocampi were dissected from embryonic day 18 Sprague Dawley rats (Charles River Laboratory) in cold sterile HBSS (zero Ca^2+, zero Mg^2+). All dissection products were supplied by Invitrogen, unless otherwise stated. Hippocampal tissue was treated with trypsin (2.5%) for 15 min at 37° C. The tissue was triturated using fire polished Pasteur pipettes, in minimum essential media (MEM) supplemented with 5% fetal bovine serum (FBS; Thermo Scientific), 2% B-27, 2% 1M D-glucose (Fisher Scientific) and 1% glutamax. […]\nAnalysis of voltage sensitivity in HEK cells was performed using custom Matlab routines. Briefly, a region of interest (ROI) was selected automatically based on fluorescence intensity and applied as a mask to all image frames. Fluorescence intensity values were calculated at known baseline and voltage step epochs. For analysis of BeRST 1 voltage responses in neurons, regions of interest encompassing cell bodies were drawn in ImageJ and the mean fluorescence intensity for each frame extracted. The photostability of BeRST 1 allowed for the calculation of ΔF/F values by subtracting a mean background value from all raw fluorescence frames, bypassing the noise amplification which arises from subtracting background for each frame. […] For cross-excitation quantification images were background subtracted. […] Mean intensity values for stained neurons were calculated. […]"}, "rat hippocampal neurons [5]": {"system": "rat hippocampal neurons", "test": "Imaging of action potentials evoked by extracellular field stimulation in hippocampal neurons", "format": "cell-based", "experimental": "Hippocampi were dissected from embryonic day 18 Sprague Dawley rats (Charles River Laboratory) in cold sterile HBSS (zero Ca^2+, zero Mg^2+). All dissection products were supplied by Invitrogen, unless otherwise stated. Hippocampal tissue was treated with trypsin (2.5%) for 15 min at 37° C. The tissue was triturated using fire polished Pasteur pipettes, in minimum essential media (MEM) supplemented with 5% fetal bovine serum (FBS; Thermo Scientific), 2% B-27, 2% 1M D-glucose (Fisher Scientific) and 1% glutamax. The dissociated cells were plated onto 12 mm diameter coverslips (Fisher Scientific) pre-treated with PDL (as above) at a density of 30,000-40,000 cells per coverslip in MEM supplemented media (as above). Neurons were maintained at 37° C. in a humidified incubator with 5% CO2. At 3 days in vitro (DIV) half of the MEM supplemented media was removed and replaced with Neurobasal media containing 2% B-27 supplement and 1% glutamax. Transfection of genetic tools was carried out using Lipofectamine 3000 at 7 DIV. Functional imaging was performed on mature neurons 13-20 DIV, except electrophysiological experiments which were performed on 12-15 DIV neurons.\nExtracellular field stimulation was delivered by Grass Stimulator connected to a recording chamber containing two platinum electrodes (Warner), with triggering provided through a Digidata 1332A digitizer and pCLAMP 10 software (Molecular Devices). Action potentials were triggered by 1 ms 80 V field potentials delivered at 5 Hz. To prevent recurrent activity the HBS bath solution was supplemented with synaptic blockers 10 μM 2,3-Dioxo-6-nitro-1,2,3, 4-tetrahydrobenzo[f]quinoxaline-7-sulfonamide (NBQX; Santa Cruz Biotechnology) and 25 μM DL-2-Amino-5-phosphonopentanoic acid (APV; Sigma-Aldrich). Functional imaging of BeRST 1 was performed using the EMCCD camera and a 63× objective. BeRST 1 was excited with a 631 nm light (LED; 631 nm, 28 nm bandpass) with an intensity of 127 W/cm^2. Emission from BeRST 1 was collected with a 680/10 nm bandpass emission filter (after passing through a quadruple dichroic mirror (432/38 nm, 509/22 nm, 586/40 nm, 654 nm LP) or for GCaMP6s and ASAP experiments a QUAD filter (quadruple emission filter (430/32 nm, 508/14 nm, 586/30 nm, 708/98 nm) after passing through the quadruple dichroic mirror. Optical sampling rate of BeRST 1 imaging was 0.5-0.53 kHz, except when imaging with ASAP1 (1.25 kHz). Green spectrum genetic tools (GFP, GCaMP6s and ASAP1) were illuminated using 475 nm light (LED; 475 nm, 34 nm bandpass). For functional imaging an intensity of 33 W/cm^2 for GCaMP6s and 200 W/cm^2 for the more weakly fluorescent ASAP1 was used, which is the maximum 475 nm LED intensity for the system. Emission was collected with a 540/50 nm bandpass filter after passing through a 510 nm longpass dichroic. Functional imaging of GCaMP6s and ASAP was performed at 40 Hz and 1.25 kHz, respectively. Images showing cellular morphology were performed by switching to a lower magnification 20× objective in conjunction with either the EMCCD (GCaMP6s/ASAP1) or sCMOS (GFP) camera.\nAnalysis of voltage sensitivity in HEK cells was performed using custom Matlab routines. Briefly, a region of interest (ROI) was selected automatically based on fluorescence intensity and applied as a mask to all image frames. Fluorescence intensity values were calculated at known baseline and voltage step epochs. For analysis of BeRST 1 voltage responses in neurons, regions of interest encompassing cell bodies were drawn in ImageJ and the mean fluorescence intensity for each frame extracted. The photostability of BeRST 1 allowed for the calculation of ΔF/F values by subtracting a mean background value from all raw fluorescence frames, bypassing the noise amplification which arises from subtracting background for each frame. All example traces were not averaged. […]"}, "HEK cells": {"system": "HEK cells", "test": "Voltage sensitivity in HEK cells, whole-cell voltage clamp with fluorescence imaging", "format": "cell-based, Human", "conditions": "for voltage sensitivity, fractional change in fluorescence: 680 nm emission, n=4 cells", "experimental": "Functional imaging of BeRST 1 was performed using a 20× objective paired with image capture from the EMCCD camera at a sampling rate of 0.5 kHz. BeRST 1 was excited using the 633 nm LED with an intensity of 6.7 W/cm^2. For initial voltage characterization (see, FIG. 4) emission was collection with the QUAD filter and dichroic (see above). For investigation into voltage sensitivity during excitation cross-talk (see, FIG. 11) BeRST 1 was excited by a 633 nm LED as above and 390 nm light (violet LED, 20 nm bandpass) with an intensity of 3.3 W/cm^2 and emission was collected with a 680/10 nm bandpass emission filter.\nAnalysis of voltage sensitivity in HEK cells was performed using custom Matlab routines. Briefly, a region of interest (ROI) was selected automatically based on fluorescence intensity and applied as a mask to all image frames. Fluorescence intensity values were calculated at known baseline and voltage step epochs. For analysis of BeRST 1 voltage responses in neurons, regions of interest encompassing cell bodies were drawn in ImageJ and the mean fluorescence intensity for each frame extracted. The photostability of BeRST 1 allowed for the calculation of ΔF/F values by subtracting a mean background value from all raw fluorescence frames, bypassing the noise amplification which arises from subtracting background for each frame. All example traces were not averaged. For comparisons of action potentials recorded electrophysiologically and optically, imaging traces were analyzed using spike detection algorithms in the Clampfit 10 software (Molecular Devices). For cross-excitation quantification images were background subtracted. ROIs were made by thresholding to the 25% of the maximum pixel intensity to remove non-stained areas. Mean intensity values for stained neurons were calculated.\nFor whole-cell, voltage clamp recordings in HEK 293T cells were held at −60 mV and 100 ms hyper- and de-polarizing steps applied from −100 to +100 mV in 20 mV increments."}, "rat hippocampal neurons [6]": {"system": "rat hippocampal neurons", "test": "Effect of dye loading on action potential firing, whole-cell patch clamp without imaging", "format": "cell-based", "conditions": "neurons with or without 1 μM dye, n=12 and 11", "experimental": "To test if loading of BeRST 1 onto the membrane of neurons has any effect on their action potential firing, ten 500 ms current steps were injected into neurons, in increments of […]. The first action potential from each sweep was analyzed in Clampfit 10 software (Molecular Devices) to give amplitude and kinetic data. The cell capacitance determined by the Clampex software during recording. To evoke single action potentials for electrophysiological and imaging comparisons, short (10 ms) current injections were applied which were 2× the threshold required to evoke a single action potential. Analysis of action potentials was performed using spike detection algorithms in the Clampfit 10 software."}, "[7]": {"conditions": "aqueous buffer (50 mM TBS, pH 7.5, 0.1% SDS)"}}, "note": "“Also recorded” adds a separate entry of the source.", "data": [{"compound": "cresyl violet", "values": [{"measurement": "quantum yield of reference standard", "setting": "[1]", "value": 0.54}]}, {"compound": "CN(C)c1ccc2c(c1)[Si](C)(C)C1=CC(=[N+](C)C)C=CC1=C2c1ccccc1S(=O)(=O)[O-]", "note": "[BR, 2-(7-(Dimethylamino)-3-(dimethyliminio)-5,5-dimethyl-3,5-dihydrodibenzo[b,e]silin-10-yl) benzenesulfonate]", "values": [{"measurement": "quantum yield (Φfl)", "setting": "[2]; TBS/SDS aqueous buffer", "value": 0.24}, {"measurement": "emission maximum", "setting": "[2]", "value": 681, "unit": "nm"}, {"measurement": "absorbance / excitation centered at", "setting": "[2]; [7]", "value": 658, "unit": "nm"}, {"measurement": "extinction coefficient", "setting": "[2]; [7]", "value": "150,000 M^−1 cm^−1"}, {"measurement": "quantum yield (Φfl)", "setting": "[2]; methanol", "value": 0.32}, {"measurement": "change in absorbance with pH (spirocyclization)", "setting": "[2]; pH 2.5 to 9", "value": "no change in absorbance"}, {"measurement": "absorbance vs. solvent dielectric constant (solvatochromism)", "setting": "[2]; ε=6 (10% water/dioxane v/v) to ε=71 (90% water/dioxane v/v)", "value": "remains unchanged"}, {"measurement": "emission with 390 nm excitation, share of full emission", "setting": "[3]", "value": 16, "unit": "%"}, {"measurement": "emission with 475 nm excitation compared to excitation at 630 nm", "setting": "[3]", "value": "approximately 1%"}]}, {"compound": "COc1cc(N(C)C)ccc1/C=C/c1ccc(/C=C/c2ccc(C3=C4C=CC(=[N+](C)C)C=C4[Si](C)(C)c4cc(N(C)C)ccc43)c(S(=O)(=O)[O-])c2)cc1", "note": "[BeRST 1, 5-((E)-4-((E)-4-(Dimethylamino)-2-methoxystyryl)styryl)-2-(7-(dimethylamino)-3-(dimethyliminio)-5,5-dimethyl-3,5-dihydrodibenzo[b,e]silin-10-yl)benzenesulfonate]", "values": [{"measurement": "quantum yield (Φfl)", "setting": "[2]; TBS/SDS aqueous buffer", "value": 0.017}, {"measurement": "emission maximum", "setting": "[2]", "value": 683, "unit": "nm"}, {"measurement": "absorbance / excitation centered at", "setting": "[2]; [7]", "value": 658, "unit": "nm"}, {"measurement": "extinction coefficient at the incident irradiation", "setting": "[2]; at incident irradiation (631 nm BeRST 1, 475 nm VF2.1.Cl)", "value": "150,000"}, {"measurement": "quantum yield (Φfl)", "setting": "[2]; methanol", "value": 0.022}, {"measurement": "emission with 390 nm excitation, share of full emission", "setting": "[3]", "value": 35, "unit": "%"}, {"measurement": "emission with 475 nm excitation compared to excitation at 630 nm", "setting": "[3]", "value": "~7", "unit": "%"}, {"measurement": "FWHM duration of action potentials, optical record", "setting": "rat hippocampal neurons [4]; electrophysiological record 1.65±0.15 ms", "value": "1.97 ± 0.14", "unit": "ms"}, {"measurement": "optical response for action potentials", "setting": "rat hippocampal neurons [4]; current clamp evoked action potentials", "value": "approximately 9.5 % ΔF/F"}, {"measurement": "change in fluorescence per action potential", "setting": "rat hippocampal neurons [5]; field stimulation, GFP-expressing cells, n=5 pairs of cells", "value": "8.7±0.8", "unit": "% ΔF/F"}, {"measurement": "change in fluorescence per action potential", "setting": "rat hippocampal neurons [5]; field stimulation, cells not expressing GFP", "value": "approximately 9.2 % ΔF/F"}, {"measurement": "optical response for action potentials", "setting": "rat hippocampal neurons [5]; field stimulation, n=5 cells", "value": 17.8, "unit": "% ΔF/F"}, {"measurement": "voltage transient for a single evoked action potential", "setting": "rat hippocampal neurons [5]; neuron expressing GCaMP6s and stained with BeRST 1", "value": "approximately 15 % ΔF/F"}, {"measurement": "increase in relative fluorescence to evoked train of action potentials", "setting": "rat hippocampal neurons [5]; neurons expressing ASAP1 and stained with BeRST 1, S.E.M., n=4 cells", "value": "15%±2.1%"}, {"measurement": "resolution of individually evoked action potentials in trains", "setting": "rat hippocampal neurons [5]; trains at 5, 10 and 20 Hz", "value": "visible in the BeRST 1 channel at all frequencies"}, {"measurement": "voltage sensitivity", "setting": "HEK cells; HEK cells loaded with 1 μM dye, whole-cell voltage clamp, n=15 cells", "value": "approximately 24%±5%"}, {"measurement": "voltage sensitivity, fractional change in fluorescence", "setting": "HEK cells; excited at 390 nm (3.3 W/cm^2)", "value": 28, "unit": "% ΔF/F per 100 mV"}, {"measurement": "voltage sensitivity, fractional change in fluorescence", "setting": "HEK cells; excited at 631 nm (6.7 W/cm^2)", "value": 26, "unit": "% ΔF/F per 100 mV"}, {"measurement": "linearity of fluorescence response to membrane potential", "setting": "HEK cells; range spanning ±100 mV", "value": "linear"}, {"measurement": "effect on action potential amplitude, duration, rise time, decay time, cellular capacitance", "setting": "rat hippocampal neurons [6]", "value": "No difference; also recorded: No statistically significant differences"}]}]}
